# Tested on: O=NOO- derived from the reaction of NO· with O2·-
# Assay: Formation of peroxynitrite from reaction of NO radical with superoxide
# Conditions: in vitro and in vivo condition
# Text: Ascorbate is a typical scavenger of O2·^− and thus could inhibit the production of O═NOO^−. […] Based on this discovery, an administration of a great amount of arginine combined with ascorbic acid in an amount 1/5 times and more, for example from 1/5 to 20 times, especially from 1.5 to 20 times the amount of the arginine can be expected to prevent peroxidative injuries of cells caused by the ion, O═NOO^−. Therefore, the present invention also includes the following embodiments.
smiles,measurement,value
"O=C1O[C@H]([C@@H](O)CO)C(O)=C1O [ascorbic acid, L-ascorbic acid]",Formation of O=NOO- (peroxynitrite),retards formation

# From patent US7214709B2, “Arginine/ascorbic acid mixed powder as an oral supplement” (priority 2000, dated 2007)
